We go through four molecules from patent US20190209548A1, “LINKED DIARYL COMPOUNDS WITH ANTICANCER PROPERTIES AND METHODS OF USING THE SAME” (University of Maryland, College Park, priority 2014, published 2019).

The test system of one experiment is 24mer c-myc. Nature of the experiment: ITC titration with c-myc G-quadruplex. In kind it is binding. Here is the method: (§1) Isothermal titration calorimetry. ITC experiments were performed using a VP-ITC calorimeter (GE-Healthcare). A typical ITC experiment involved as many as addition of 28 (10 μL) injections of as high as 1 mM ligand solutions into ˜1.5 mL of a dilute DNA solution (10 μM). Corrected titration curves were achieved by subtracting the blank titration data from the ITC-data for the ligand-DNA titrations. Corrected ITC titrations were fit with a nonlinear regression algorithm again using the CHASM ITC data analysis program developed in our laboratory.
(§2) DNA stock solutions were prepared by reconstituting the lyophilized oligonucleotide into 20 mM Tris buffer with a salt concentration of 100 mM KCl and a pH of 7.2. Approximately 2 mL of the oligonucleotide was dialyzed (1000 Mw cutoff membrane) against three changes of buffer solution (1 L, 24 h each) at 4° C. The concentrations of stock DNA solutions were verified using UV-Vis. G-Quadruplex DNAs were annealed by quickly heating to sample to 100° C., holding at 100° C. for ten minutes then slowly cooling to 5° C. over three hours period. Molar extinction coefficient of the DNAs were determined using a nearest-neighbor method for single stranded DNA. The extinction coefficients at 260 nm for the WT 27-mer bcl-2, WT 24-mer c-myc, WT 22-mer human telomere hTel sequences are 267,200 M^−1cm^−1, 248,100 M^−1cm^−1, and 228,500 M^−1cm^−1 respectively. The extinction coefficient at 260 nm for the 7 base pair hairpin with A2T2 (7 bp HP⋅AT) and the 7 base pair hairpin without A2T2 (7 bp HP) are 165,200 M^−1cm^−1 and 159,200 M^−1cm^−1 respectively. Cell culture grade water purchased from Corning was used for all experiments.
(In general: Isothermal titration calorimetry measures the heat released or taken up as one component is titrated into another.)

Experiment [1] concerns B-DNAs containing the AT rich sequence. Particulars: measured by NMR, Jenkins et al.; cited from earlier work.
The subject of another experiment is 7bp HP. Put plainly: ITC titration with 7 bp hairpin without A2T2. It is filed as binding. The note with it: 20 mM Tris, 100 mM KCl, pH 7.2. The protocol:
as §1
as §2, with “The extinction coefficient at 260 nm for the 7 base pair hairpin with A2T2 (7 bp HP⋅AT) and the 7 base pair hairpin without A2T2 (7 bp HP) are 165,200 M^−1cm^−1 and 159,200 M^−1cm^−1 respectively. Cell culture grade water purchased from Corning was used for all experiments.” left out

Another experiment relates to 27mer WT bcl-2. Put plainly: CD titration with bcl-2 G-quadruplex. In kind it is binding. The note with it: K+ Tris buffer. Here is the method: Circular Dichroism (CD). CD titration experiments were performed with an Olis DSM-20 spectropolarimeter (Bogart, Ga.). All measurements were done at 25° C. using a 1 cm quartz cuvette and covering a spectral range of 220-420 nm. […] Stock solutions of the ligand were added in small amount to reach a molar ratio of 1:1, 3:1, 6:1, and 10:1 of ligand per equivalence of DNA.

In experiment [2] the test system is telomerase activity in MDA-MB-231. Nature of the experiment: Telomerase activity assay (TRAPeze XL) in treated cells. It is filed as cell-based, human. Here is the method: Telomerase Activity Assay. MDA-MB-231 cells were routinely cultured in DMEM with 10% FBS and 1% L-glutamine. The evening prior to treatment, actively growing MDA-MB-231 cells were sub-cultured and seeded into T-25 flasks at 2×10^5 cells/flask. […] At 48 and 72 hours after treatment, cells were harvested, washed with PBS, and pelleted. Cell pellets were resuspended in 200 μl CHAPS lysis buffer with 200 units/mL RNase inhibitor, mixed by pipetting, and incubated on ice for 30 minutes. Lysates were then centrifuged at 12,000×g for 20 minutes at 4° C., and supernatants were collected, snap frozen, and stored at −80° C. until analysis. Telomerase activity was assayed using a fluorescence-based TRAPeze XL telomerase detection kit (Intergen, Purchase, N.Y.). According to manufacturer, lysates (1000 cell-equivalents) were mixed with TRAPeze XL reaction mix containing Amplifuor primers and incubated at 30° C. for 30 min to allow the elongation of “TS” primer by telomerase. Amplified telomerase products were quantitated with a fluorescence plate reader. Telomerase activity (in TPG units) was calculated by comparing the ratio of telomerase products to an internal standard for each lysate, as described by the manufacturer. Each unit of TPG (Total Product Generated) corresponds to the number of TS primers extended with at least 3 telomeric repeats by telomerase in the extract in a 30 minute incubation at 30° C.

For a further experiment, the system named is G-quadruplexes. Put plainly: Binding to G-quadruplexes, general statements. The note with it: all of the tested G-quadruplexes, ITC, compare Tables 2 and 3.
Another experiment concerns 8 bp AT duplex DNA. Nature of the experiment: UV-visible titration with duplex DNA. The note with it: ligand 10 μM. In kind it is binding. Here is the method: UV titration studies of DNA with the triazene ligands, DMZ and Triazene-1. The molar extinction coefficients at 260 nm for 22-mer c-kit1, 18-mer VEGF, 23-mer bcl-2 2345, 15-mer TBA and 20-mer 8 bp AT are as follows 226,700 M^−1 cm^−1, 169,800 M^−1 cm^−1, 227,300 M^−1 cm^−1, 143,300 M^−1 cm^1 and 205,500 M^−1 cm^−1, respectively. The concentration of ligands used in this study was 10 μM and the DNA concentrations were 0, 0.25, 1.5, 3, 5, 6, 7, 8, 9, 10, 20, 30, 40, 50, 100, and 15 μM. The buffer contained 250 mM KCl, 50 mM Tris-HCl (at pH 7.5). The following quadruplex DNA were tested: c-kit1, VEGF, bcl-2 2345, and TBA. Duplex DNA (8 bp AT) was also tested. The sample was first heated up to 95° C. for 5 min without the ligand and then cooled down to room temperature in 15 min. The ligand was then added and the mixture was incubated at 4° C. for ˜12 h before recording the data. In case of Triazene-1 and Triazene-2, the sample mixture contained 1% DMSO.

Experiment [3] concerns c-MYC protein in MDA-MB-231 cells. Put plainly: Western Blot of c-MYC protein expression. In kind it is cell-based, human. The note with it: 5.45 or 27.25 μM, 2, 6 or 24 hours. The protocol:
FIG. 7. Western Blot analysis of c-MYC protein expression in MDA-MB-231 after treated with TMPyP4 and DMZ9. A, MDA-MB-231 cells were treated with DMSO vehicle, DMZ9 (5.45 […] and 27.25 μM), TMPyP4 (22.3 μM and 111.5 μM) for 2 h, 6 h and 24 h. Total protein was extracted and analyzed by Western Blot with 1:1,000 C-MYC (Cell Signaling) and 1:10,000 HRP-linked anti-rabbit IgG (Cell Signaling). * Observed high level of cytotoxicity and low protein levels. B and C, the graphs show the relative density as compared with the DMSO vehicle. Scanned images were analyzed using image J software.
Western Blot Analysis of c-MYC Protein Expression. C-MYC protein levels in MDA-MB-231 cells were evaluated by performing Western Blot. MDA-MB-231 breast cancer cells were treated with 22.3 or 111.5 μM TMPyP4 and 5.45 or 27.25 μM DMZ9 for 2, 6 or 24 hours.

Setting [4] is: ITC, 20 mM Tris, 100 mM KCl, pH 7.2.

Structures are written as SMILES.

For `N=C(N)c1ccc(/N=N/Nc2ccc(C(=N)N)cc2)cc1` [DMZ, Diminazene aceturate, reference compound], in the experiment on 24mer c-myc (setting [4]), the K1 stood at 7.6e+08 M⁻¹, the K2 came to 1.9e+07 M⁻¹ and the K3 was found to be 280000 M⁻¹. The Kd at 24mer c-myc (from ITC data, as low as, read-out: dissociation constant) is ~1 nM. For the same molecule, the “Kavg, binding affinity” value in experiment [1] is given as “≈ 1×10^6 M^−1”. The molecule further registered a K2 in the experiment on 7bp HP of 18000 M⁻¹. Besides, in the experiment on 27mer WT bcl-2, the “CD signal of G-quadruplex upon complexation” value is reported as “dramatically decreased”.

On to `N=C(N)c1ccc(/N=N/Nc2ccccc2C#Cc2ccc(F)cc2)cc1` [DMZ13], for which the “inhibition of telomerase activity” value in experiment [2] (12.4 μM, 48 h) is “about 20%”; in experiment [2] (12.4 μM, 72 h), “about 30%”.

As for `N=C(N)c1ccc(NN=Nc2ccccc2)cc1` [DMZ1], the K1 in the experiment on 24mer c-myc (setting [4]) was determined as 36000 M⁻¹. For the same molecule, in the experiment with G-quadruplexes, the “binding less than DMZ” value is on record as 4-5 orders of magnitude. Besides, the “shift of absorption spectrum upon DNA titration” value in the experiment with 8 bp AT duplex DNA is “no such shift was observed”.

For the molecule `N=C(N)c1ccc(N=NNc2cccc(C#Cc3ccc(F)cc3)c2)cc1` [DMZ9], in experiment [2] (11 μM, 48 h or 72 h), the “inhibition of telomerase activity” value is recorded as “up to 50%”. Further, the c-MYC protein expression entry in experiment [3] is recorded as “caused a decrease in the c-MYC protein expression”.
